How the values were obtained:
[1] = target: T1, recombinant human Wee1A kinase (Homo sapiens, UniProt P30291); assay: Wee1A kinase binding assay (LanthaScreen Eu time-resolved FRET); conditions: 30 nM tracer 178, 5 nM Wee1A kinase, 2 nM Eu-labeled antibody; 60 minutes at room temperature; read-out: Wee1A kinase Binding IC50
T1 construct: full length Wee1 kinase was expressed by baculovirus in insect cells; purchased Invitrogen PV3817; host or cells: insect cells (baculovirus)
Protocol: This time resolved-FRET binding assay was performed in white 384-well low volume plates (Greiner, cat #784075), at room temperature in kinase buffer A (KBA; Invitrogen cat #PV3189), consisting of 50 mM HEPES-NaOH (pH 7.5), 0.01% Brij-35, 10 mM MgCl2, and 1 mM EGTA. 5 μL of compound (diluted in reaction buffer, to 1% DMSO) were added to various wells in the plate, followed by 5 μL each of recombinant human Wee1A kinase (full length Wee1 kinase was expressed by baculovirus in insect cells using a N-terminal GST tag (MW: 99.1 kDa) (Invitrogen cat #PV3817) and LanthaScreen Eu-anti-GST antibody (Invitrogen, cat #PV5594). After this, 5 μL of kinase tracer 178 (Invitrogen, cat #PV5593) was added to the plate and the plate was incubated for 60 minutes at room temperature. The final assay conditions in each well were: 30 nM tracer 178, 5 nM Wee1A kinase and 2 nM Eu-labeled antibody in total assay volume of 15 μL. An Envision 2104 (Perkin-Elmer) Plate Reader with the following time-resolve fluorescence setting was used for performing LanthaScreen kinase binding assay. • Excitation 320 nm (30 nm bandpass) • Kinase Tracer Emission 665 nm (10 nm bandpass) • LanthaScreen Eu-anti-Tag Antibody Emission 615 nm (10 nm bandpass) • Dichroic Mirror Instrument dependent • Delay Time 100 μs • Integration Time 200 μs
(§1) To calculate the emission ratio, the acceptor/tracer emission ([…]) was divided by the antibody/donor emission ([…]) and the average of duplicate measurement was used for calculations. Data plotting, analysis of binding, and curve fitting was done using Excel add-in XLfit version 5.5.0.5 (IDBS, Guildford, United Kingdom). […] “NT” means not tested.

[2] = target: T2, Wee1A kinase (CDK1 Tyr15 phosphorylation in ACHN renal cell carcinoma cells) (Homo sapiens, UniProt P30291); assay: High-content imaging of pCdk1 Y15, Wee1A kinase target engagement in ACHN cells; assay type: cell-based; conditions: 4 h treatment, nuclear positivity for pCdk1 Y15 vs DMSO control, read-out: CDK1 Tyr15 Phosphorylation EC50
T2 construct: pCDK1 Tyr15 immunofluorescence read-out
T2 sequence (P30291 whole entry): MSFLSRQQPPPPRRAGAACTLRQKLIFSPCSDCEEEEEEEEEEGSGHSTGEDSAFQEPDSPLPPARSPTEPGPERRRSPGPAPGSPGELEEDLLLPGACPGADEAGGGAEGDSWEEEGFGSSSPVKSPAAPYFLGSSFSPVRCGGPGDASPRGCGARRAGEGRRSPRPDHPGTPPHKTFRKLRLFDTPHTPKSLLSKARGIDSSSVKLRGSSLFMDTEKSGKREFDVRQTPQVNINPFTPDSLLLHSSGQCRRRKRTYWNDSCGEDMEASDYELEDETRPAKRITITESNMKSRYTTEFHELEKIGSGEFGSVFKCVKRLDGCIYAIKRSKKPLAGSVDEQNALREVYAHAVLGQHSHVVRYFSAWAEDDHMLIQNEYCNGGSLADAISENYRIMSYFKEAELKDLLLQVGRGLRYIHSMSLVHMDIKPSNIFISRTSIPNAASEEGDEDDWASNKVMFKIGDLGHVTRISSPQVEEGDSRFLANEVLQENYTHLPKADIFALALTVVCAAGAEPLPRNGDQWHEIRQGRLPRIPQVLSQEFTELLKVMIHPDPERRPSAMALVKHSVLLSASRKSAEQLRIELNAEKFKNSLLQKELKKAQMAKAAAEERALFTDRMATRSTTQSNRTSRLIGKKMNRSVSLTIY
Protocol: Each of an ACHN renal cell carcinoma cell line (ATCC) and a DAOY medulloblastoma cell line, and an A427 lung cancer line were cultured in Minimum Essential Medium Eagle supplemented with 10% fetal calf serum (Sigma), 1% Penicillin-Streptomycin and 10 mM HEPES buffer (HyClone). Cell cultures were kept in a humidified incubator at 37 °C and 5% CO2. Cells were routinely tested for Mycoplasma contamination.
For target engagement assessment of Wee1A kinase inhibition, high-content imaging of ACHN renal cell carcinoma cells was used for quantification of CDK1 phosphorylated on tyrosine 15 by immunofluorescence (“IF”). 20,000 cells per well were seeded in tissue culture treated 96 well plates and treated with compounds at concentrations ranging from 7 to 5,000 nM or from 0.3 to 200 nM for 4h. Cells were fixated for 15 minutes in 4% paraformaldehyde solution, washed in PBS and permeabilized using 0.2% Triton X-100. Blocking was performed for 1 h at RT using Blocker FL Fluorescent Blocking Buffer (Thermo Scientific), thereafter cells were incubated with primary antibody (rabbit anti-pCDK1 Y^15, #4539, Cell Signaling Technology) at 4 °C ON. Alexa Fluor Plus 647 labelled goat anti-rabbit (A32733, Thermo Scientific) was used as secondary antibody. After washing in PBS, nuclei were stained with DAPI solution for 10 min at RT, protected from light. Cells were imaged using an ImageXpress Pico automated imaging system and CellReporter Xpress software (Molecular Devices). The percentage of cells with nuclear positivity for pCdk1 Y^15 compared to DMSO control was determined for each well and drug dose response curves and EC50 values were calculated and visualized using GraphPad Prism. Target engagement for Wee1A kinase can also be measured using the same AlphaLISA assay in OVCAR3 cells, an ovarian cancer cell line. NIH:OVCAR-3 (OVCAR3) cells are cultured in RPMI-1640 medium supplemented with 0.01 mg/ml insulin, 20% FBS, 1% Penicillin-Streptomycin and 10 mM HEPES buffer. 14,000 cells per well are seeded into 96 well tissue culture plates in full medium. Twenty-four hours post seeding, cells are treated with compound for 4 hours at concentrations ranging from 0.017 nM to 1000 nM.

[3] = target: T3, Myt1 kinase (recombinant PMYT-1) (Homo sapiens, UniProt Q99640); assay: Myt1 kinase binding assay (LanthaScreen Eu Kinase Binding Assay); conditions: 3 nM tracer 178, 2.5 nM PMYT-1, 1 nM Eu-labeled antibody; read-out: Myt1 kinase Binding IC50
T3 construct: full length PMYT-1 was expressed by baculovirus in insect cells; purchased Invitrogen A30984; host or cells: insect cells (baculovirus)
T3 sequence (Q99640 1-499): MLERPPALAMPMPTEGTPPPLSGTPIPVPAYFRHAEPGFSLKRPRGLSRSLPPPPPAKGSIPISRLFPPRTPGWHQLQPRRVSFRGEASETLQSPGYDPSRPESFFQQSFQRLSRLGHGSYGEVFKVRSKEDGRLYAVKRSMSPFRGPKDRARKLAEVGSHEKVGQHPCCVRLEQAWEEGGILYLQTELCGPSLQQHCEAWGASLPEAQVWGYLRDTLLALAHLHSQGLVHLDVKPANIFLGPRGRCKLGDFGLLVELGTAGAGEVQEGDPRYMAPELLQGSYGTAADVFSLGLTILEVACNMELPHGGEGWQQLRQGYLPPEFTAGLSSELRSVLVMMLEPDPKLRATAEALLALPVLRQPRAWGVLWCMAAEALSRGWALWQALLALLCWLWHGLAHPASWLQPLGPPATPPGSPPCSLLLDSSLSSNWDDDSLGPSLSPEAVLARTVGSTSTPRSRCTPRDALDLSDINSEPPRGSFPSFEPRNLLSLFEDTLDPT
Protocol: as §1
We used a LanthaScreen Europium (Eu) Kinase Binding Assay to determine the binding affinities (IC50) of compounds to Myt1 kinase. […] “NT” designates that the compound was not tested in this assay.

T1 sequence (P30291 whole entry): as the sequence (P30291 whole entry) above

Row | SMILES | IC50 [1] [nM] | EC50 [2] [nM] | IC50 [3] [nM]
1 | C=CCn1c(=O)c2cnc(Nc3ccc(F)cc3)nc2n1-c1cccc(O[C@H]2CCCNCC2)n1 (single isomer, unassigned) [Compound 266] | < 10 | 100 to 500 | 20 to 100
2 | C=CCn1c(=O)c2cnc(Nc3ccc(F)cc3)nc2n1-c1cccc(OC2CCCNCC2)n1 (single isomer, unassigned) [Compound 344] | < 10 | 100 to 500 | > 500
3 | C=CCn1c(=O)c2cnc(Nc3ccc(F)cc3)nc2n1-c1cccc(OC2CCCN(C)CC2)n1 (single isomer, unassigned) [Compound 351] | < 10 | < 100 | 20 to 100
4 | C=CCn1c(=O)c2cnc(Nc3ccc(F)cc3)nc2n1-c1cccc(OC2CCCN(C)CC2)n1 (single isomer, unassigned) [Compound 372] | < 10 | < 100 | 20 to 100
5 | C=CCn1c(=O)c2cnc(Nc3ccc(Cl)cc3)nc2n1-c1cccc(OC2CCCNC2)n1 (stereo in doubt) [Compound 159, 6-[(4-chlorophenyl)amino]-1-{6-[(3R)-piperidin-3-yloxy]pyridin-2-yl}-2-(prop-2-en-1-yl)-1H,2H,3H-pyrazolo[3,4-d]pyrimidin-3-one] | < 10 | 500 to 1000 | 20 to 100
6 | C=CCn1c(=O)c2cnc(Nc3ccc(OC)nc3)nc2n1-c1cccc(OC2CCNCC2)n1 [Compound 251, 2-allyl-6-(6-methoxy-3-pyridylamino)-1-[6-(4-piperidyloxy)-2-pyridyl]-1,2-dihydro-3H-1,2,5,7-tetraazainden-3-one] | < 10 | – | 20 to 100
7 | C=CCn1c(=O)c2cnc(Nc3ccc4ncccc4c3)nc2n1-c1cccc(OC2CCN(C)CC2)n1 [Compound 325, 2-allyl-1-[6-(1-methyl-4-piperidyloxy)-2-pyridyl]-6-(6-quinolylamino)-1,2-dihydro-3H-1,2,5,7-tetraazainden-3-one] | < 10 | – | 20 to 100
8 | CCn1c(=O)c2cnc(Nc3cnn(C)c3)nc2n1-c1cccc(OC2CCN(C)CC2)n1 [Compound 341, 2-ethyl-6-[(1-methyl-1H-pyrazol-4-yl)amino]-1-{6-[(1-methylpiperidin-4-yl)oxy]pyridin-2-yl}-1H,2H,3H-pyrazolo[3,4-d]pyrimidin-3-one] | – | 100 to 500 | 20 to 100

Continued, values first:

Row | IC50 [1] [nM] | EC50 [2] [nM] | IC50 [3] [nM] | SMILES
9 | < 10 | < 100 | 20 to 100 | C=CCn1c(=O)c2cnc(Nc3ccc4c(cnn4C)c3)nc2n1-c1cccc(O[C@@H]2CCN[C@@H](C)C2)n1 (relative stereo) [Compound 405, rel-2-allyl-6-((1-methyl-1H-indazol-5-yl)amino)-1-(6-(((2R,4S)-2-methylpiperidin-4-yl)oxy)pyridin-2-yl)-1,2-dihydro-3H-pyrazolo[3,4-d]pyrimidin-3-one]
10 | < 10 | < 100 | 20 to 100 | C=CCn1c(=O)c2cnc(Nc3ccc4c(cnn4C)c3)nc2n1-c1cccc(OC2CCCNCC2)n1 (single isomer, unassigned) [Compound 357]
11 | < 10 | < 100 | 100 to 500 | C=CCn1c(=O)c2cnc(Nc3ccc4c(cnn4C)c3)nc2n1-c1cccc(O[C@H]2CCCNCC2)n1 (single isomer, unassigned) [Compound 358]
12 | < 10 | 100 to 500 | 100 to 500 | C=CCn1c(=O)c2cnc(Nc3ccc4c(cnn4C)c3)nc2n1-c1cccc(O[C@H]2CCN[C@H](C)C2)n1 (stereo in doubt) [Compound 379, 2-allyl-6-((1-methyl-1H-indazol-5-yl)amino)-1-(6-(((2R,4S)-2-methylpiperidin-4-yl)oxy)pyridin-2-yl)-1,2-dihydro-3H-pyrazolo[3,4-d]pyrimidin-3-one]
13 | < 10 | 100 to 500 | 100 to 500 | C=CCn1c(=O)c2cnc(Nc3ccc4c(cnn4C)c3)nc2n1-c1cccc(O[C@H]2CCN(C)[C@H](C)C2)n1 (stereo in doubt) [Compound 380, rel-2-allyl-1-(6-(((2R,4S)-1,2-dimethylpiperidin-4-yl)oxy)pyridin-2-yl)-6-((1-methyl-1H-indazol-5-yl)amino)-1,2-dihydro-3H-pyrazolo[3,4-d]pyrimidin-3-one]
14 | < 10 | < 100 | 100 to 500 | C=CCn1c(=O)c2cnc(Nc3ccc4c(cnn4C)c3)nc2n1-c1cccc(O[C@@H]2CCN[C@H](C)C2)n1 (stereo in doubt) [Compound 381, 2-allyl-6-((1-methyl-1H-indazol-5-yl)amino)-1-(6-(((2R,4R)-2-methylpiperidin-4-yl)oxy)pyridin-2-yl)-1,2-dihydro-3H-pyrazolo[3,4-d]pyrimidin-3-one]
15 | < 10 | < 100 | 100 to 500 | C=CCn1c(=O)c2cnc(Nc3ccc4c(cnn4C)c3)nc2n1-c1cccc(O[C@@H]2CCN(C)[C@H](C)C2)n1 (stereo in doubt) [Compound 382, 2-allyl-1-(6-(((2R,4R)-1,2-dimethylpiperidin-4-yl)oxy)pyridin-2-yl)-6-((1-methyl-1H-indazol-5-yl)amino)-1,2-dihydro-3H-pyrazolo[3,4-d]pyrimidin-3-one]
16 | < 10 | 100 to 500 | 100 to 500 | C=CCn1c(=O)c2cnc(Nc3ccc4c(cnn4C)c3)nc2n1-c1cccc(O[C@@H]2CCNC2)n1 [Compound 101, 1-{6-[(R)-3-pyrrolidinyloxy]-2-pyridyl}-2-allyl-6-(1-methyl-1H-indazol-5-ylamino)-1,2-dihydro-3H-1,2,5,7-tetraazainden-3-one]
17 | < 10 | > 1000 | 20 to 100 | C=CCn1c(=O)c2cnc(Nc3ccc4c(cnn4C)c3)nc2n1-c1cccc(N[C@H]2CCNC2)n1 [Compound 107, 1-{6-[(S)-3-pyrrolidinylamino]-2-pyridyl}-2-allyl-6-(1-methyl-1H-indazol-5-ylamino)-1,2-dihydro-3H-1,2,5,7-tetraazainden-3-one]
